{
  "source": "patent US8354417B2",
  "about": "“Solid forms comprising 3-(2,5-dimethyl-4-oxo-4H-quinazolin-3-yl)-piperidine-2,6-dione, compositions comprising the same, and methods of using the same” (Celgene Corporation, priority 2007, dated 2013)",
  "key": {"[1]": {"experiment": "Approximate measured solubility in solvents at 25° C.", "type": "physicochemical", "details": "at least 24 hours; for solubility: 25 °C, thermodynamic from solid", "method": "(§1) The solubility of Form A was investigated in a number of solvents at ambient conditions. Solubility measurements were obtained by adding solvent (either HPLC grade or reagent grade) to a carefully weighed (approximately 100 mg) sample of Form A. The resulting mixture was agitated for at least 24 hours at 25° C. The solubility was estimated based on the total volume of solvent required to give a complete solution. In addition, a known volume of filtrate was evaporated to dryness and the weight of the residue was measured.\nas §1, with “B” for “A”, “B.” for “A.”"}, "[2]": {"experiment": "Moisture sorption/desorption by Dynamic Vapor Sorption (DVS)", "type": "physicochemical", "details": "for Mass change relative to the dry mass: DVS, RH increased from 0% to 95% RH (25° C. per general method); for Weight at the end of the desorption cycle: RH decreased from 95% RH to 0% RH; for XRPD diffractogram after completion of the adsorption/desorption cycle: after full DVS cycle 0% - 95% - 0% RH; for Hygroscopicity: conclusion from moisture sorption test", "method": "The moisture sorption/desorption behavior of Form A was investigated by Dynamic Vapor Sorption (DVS).\nThe moisture sorption/desorption behavior of Form B was investigated by Dynamic Vapor Sorption (DVS).\nHygroscopicity was determined using a Surface Measurement Systems DVS instrument. Typically, a sample size of 10-50 mg was loaded into the DVS instrument sample pan and the sample was analyzed on a DVS automated sorption analyzer at 25° C. The relative humidity (RH) was increased from 0% RH to 95% RH. The RH was then decreased in a similar manner to accomplish a full adsorption/desorption cycle."}, "[3]": {"experiment": "Compression testing, 2,000 psi for approximately 1 minute (XRPD)", "type": "physicochemical", "details": "2,000 psi pressure", "method": "The stability of Form A was further investigated using compression testing. Compression testing of Form A was carried out by applying 2,000 psi pressure to a sample of Form A for approximately 1 minute, followed by analysis for stability using X-ray powder diffraction.\nThe stability of Form B was further investigated using compression testing. Compression testing of Form B was carried out by applying 2,000 psi pressure to a sample of Form B for approximately 1 minute, followed by analysis for stability using X-ray powder diffraction.\n(§2) X-ray powder diffraction (XRPD) analysis was conducted using a Thermo ARL X'TRA X-ray powder diffractometer using CuKα radiation at 1.54 Å. The instrument was equipped with a fine focus X-ray tube. The voltage and amperage of the X-ray generator were set at 45 kV and 40 mA, and the measuring slits were set at 0.5 mm and 0.2 mm. Diffracted radiation was measured using a Peltier-cooled Si (Li) solid-state detector. A theta-two theta continuous scan at 2.40°/min (0.5 sec/0.02° step) from 1.5°2θ to 40°2θ was used. A sintered alumina standard was used as a reference."}, "[4]": {"experiment": "Slurry equilibration in solvents at 25° C. or 50° C.", "type": "physicochemical", "details": "ethyl acetate, heptane, methyl t-butyl ether, toluene", "method": "Form A was prepared via crystallization of 3-(2,5-dimethyl-4-oxo-4H-quinazolin-3-yl)-piperidine-2,6-dione in several organic solvent systems. Slurry crystallizations were performed by adding an excess of solid 3-(2,5-dimethyl-4-oxo-4H-quinazolin-3-yl)-piperidine-2,6-dione to 2 ml of the desired solvent system, then agitating the resulting mixture for a minimum of 24 hours at a controlled temperature. Upon reaching equilibrium, the solids were filtered, air-dried and characterized. Form A was prepared by slurry crystallization of Form B in each of the following solvents at 25° C.: acetone; acetonitrile; n-butanol; ethanol; methanol; methyl ethyl ketone; 2-propanol; and tetrahydrofuran.\nForm B was prepared via crystallization of 3-(2,5-dimethyl-4-oxo-4H-quinazolin-3-yl)-piperidine-2,6-dione in several organic and aqueous solvent systems, including dimethylsulfoxide/water. Slurry crystallizations were performed by adding an excess of solid 3-(2,5-dimethyl-4-oxo-4H-quinazolin-3-yl)-piperidine-2,6-dione to 2 ml of the desired solvent system, then agitating the resulting mixture for a minimum of 24 hours at a controlled temperature. Upon reaching equilibrium, the solids were filtered, air-dried and characterized. Form B was prepared by slurry crystallization of Form A in the following solvents at both 25° C. and 50° C.: water; and ethanol/water (1/1)."}, "[5]": {"experiment": "Stability on exposure to 40° C./75% RH for four weeks (XRPD)", "type": "physicochemical", "details": "40° C./75% RH environment", "method": "The stability of Form A was investigated by exposing a sample of Form A to a 40° C./75% RH environment for four weeks.\nThe stability of Form B was investigated by exposing a sample of Form B to a 40° C./75% RH environment for four weeks.\nas §2"}, "[6]": {"experiment": "Stability of slurry in solvents at 40° C. for four weeks", "type": "physicochemical", "method": "The stability of Form A was further investigated by storing a slurry of Form A in each of the following solvents at 40° C. for four weeks: acetone; acetonitrile; ethanol; heptane; 2-propanol; methyl t-butyl ether; methanol; water; and ethanol/water (1/1). The Form A material was stable in acetone; acetonitrile; ethanol; heptane; 2-propanol; methyl t-butyl ether; and methanol.\nThe stability of Form B was further investigated by storing a slurry of Form B in the following solvents at 40° C. for four weeks: acetone; acetonitrile; ethanol; heptane; 2-propanol; methyl t-butyl ether; methanol; water; and ethanol/water (1/1). The Form B material was stable in heptane; methyl t-butyl ether; water; and ethanol/water (1/1)."}, "[7]": {"experiment": "Moisture sorption/desorption by Dynamic Vapor Sorption (DVS)", "type": "physicochemical", "details": "isothermic approximately 23.3° C.; for Mass increase in moisture sorption test: approximately 0% RH to approximately 50% RH (FIG. 5 / FIG. 10); for Total mass increase in moisture sorption test: approximately 0% RH to approximately 95% RH (FIG. 5 / FIG. 10)"}},
  "note": "Entries after “also recorded” stand apart in the source; their conditions may differ.",
  "data": [
    {"smiles": "Cc1cccc2nc(C)n(C3CCC(=O)NC3=O)c(=O)c12", "note": "(single isomer, unassigned) [Form A, 3-(2,5-dimethyl-4-oxo-4H-quinazolin-3-yl)-piperidine-2,6-dione]", "values": [
      {"measurement": "solubility", "setting": "[1]; 2-propanol, organic solvent or mixture", "value": 210, "unit": "µg/mL"},
      {"measurement": "solubility", "setting": "[1]; absolute ethanol, organic solvent or mixture", "value": 500, "unit": "µg/mL"},
      {"measurement": "solubility", "setting": "[1]; acetone, organic solvent or mixture", "value": 2070, "unit": "µg/mL"},
      {"measurement": "solubility", "setting": "[1]; acetonitrile, organic solvent or mixture", "value": 1490, "unit": "µg/mL"},
      {"measurement": "solubility", "setting": "[1]; ethanol/water (1/1), aqueous with cosolvent or surfactant or cyclodextrin", "value": 180, "unit": "µg/mL"},
      {"measurement": "solubility", "setting": "[1]; ethyl acetate, organic solvent or mixture", "value": 670, "unit": "µg/mL"},
      {"measurement": "solubility", "setting": "[1]; heptane, organic solvent or mixture", "value": 430, "unit": "µg/mL"},
      {"measurement": "solubility", "setting": "[1]; methanol, organic solvent or mixture", "value": 1280, "unit": "µg/mL"},
      {"measurement": "solubility", "setting": "[1]; methyl ethyl ketone, organic solvent or mixture", "value": 1390, "unit": "µg/mL"},
      {"measurement": "solubility", "setting": "[1]; methyl t-butyl ether, organic solvent or mixture", "value": 420, "unit": "µg/mL"},
      {"measurement": "solubility", "setting": "[1]; methylene chloride, organic solvent or mixture", "value": 2120, "unit": "µg/mL"},
      {"measurement": "solubility", "setting": "[1]; n-butanol, organic solvent or mixture", "value": 230, "unit": "µg/mL"},
      {"measurement": "solubility", "setting": "[1]; tetrahydrofuran, organic solvent or mixture", "value": 4570, "unit": "µg/mL"},
      {"measurement": "solubility", "setting": "[1]; toluene, organic solvent or mixture", "value": 320, "unit": "µg/mL"},
      {"measurement": "solubility", "setting": "[1]; water", "value": 170, "unit": "µg/mL"},
      {"measurement": "Mass change relative to the dry mass", "setting": "[2]", "value": 0.7, "unit": "%"},
      {"measurement": "Weight at the end of the desorption cycle", "setting": "[2]", "value": "lost all of the weight it had gained; also recorded: loses approximately all of the adsorbed moisture"},
      {"measurement": "XRPD diffractogram after completion of the adsorption/desorption cycle", "setting": "[2]", "value": "substantially unchanged"},
      {"measurement": "Hygroscopicity", "setting": "[2]", "value": "substantially non-hygroscopic"},
      {"measurement": "Physical stability upon compression by X-ray powder diffraction", "setting": "[3]", "value": "substantially unchanged; also recorded: physically stable"},
      {"measurement": "Stability when slurried", "setting": "[4]; 25° C., acetone, acetonitrile, n-butanol, ethanol, methanol, methylene chloride, methyl ethyl ketone, 2-propanol, tetrahydrofuran", "value": "stable"},
      {"measurement": "Stability when slurried", "setting": "[4]; 50° C., acetone, acetonitrile, n-butanol, ethanol, methanol, methyl ethyl ketone, 2-propanol, tetrahydrofuran", "value": "stable"},
      {"measurement": "melting point", "value": "292 to 294", "unit": "°C"},
      {"measurement": "Physical stability of the solid form by X-ray powder diffraction", "setting": "[5]", "value": "substantially unchanged; also recorded: physically stable"},
      {"measurement": "Stability of slurry", "setting": "[6]; acetone, acetonitrile, ethanol, heptane, 2-propanol, methyl t-butyl ether, methanol", "value": "stable"},
      {"measurement": "Stability of slurry", "setting": "[6]; water and ethanol/water (1/1)", "value": "converted into the Form B crystal form"},
      {"measurement": "Mass increase in moisture sorption test", "setting": "[7]", "value": "approximately 1%"},
      {"measurement": "Total mass increase in moisture sorption test", "setting": "[7]", "value": "approximately 4%"}
    ]},
    {"smiles": "Cc1cccc2nc(C)n(C3CCC(=O)NC3=O)c(=O)c12", "note": "(single isomer, unassigned) [Form B, 3-(2,5-dimethyl-4-oxo-4H-quinazolin-3-yl)-piperidine-2,6-dione]", "values": [
      {"measurement": "Approximate Solubility", "setting": "[1]; 2-Propanol", "value": 350, "unit": "µg/mL"},
      {"measurement": "Approximate Solubility", "setting": "[1]; Absolute ethanol", "value": 500, "unit": "µg/mL"},
      {"measurement": "Approximate Solubility", "setting": "[1]; Acetone", "value": 2560, "unit": "µg/mL"},
      {"measurement": "Approximate Solubility", "setting": "[1]; Acetonitrile", "value": 1400, "unit": "µg/mL"},
      {"measurement": "Approximate Solubility", "setting": "[1]; Ethanol/Water (1/1)", "value": 280, "unit": "µg/mL"},
      {"measurement": "Approximate Solubility", "setting": "[1]; Ethyl acetate", "value": 1160, "unit": "µg/mL"},
      {"measurement": "Approximate Solubility", "setting": "[1]; Heptane", "value": 440, "unit": "µg/mL"},
      {"measurement": "Approximate Solubility", "setting": "[1]; Methanol", "value": 1310, "unit": "µg/mL"},
      {"measurement": "Approximate Solubility", "setting": "[1]; Methyl ethyl ketone", "value": 1570, "unit": "µg/mL"},
      {"measurement": "Approximate Solubility", "setting": "[1]; Methyl t-butyl ether", "value": 430, "unit": "µg/mL"},
      {"measurement": "Approximate Solubility", "setting": "[1]; Methylene chloride", "value": 1630, "unit": "µg/mL"},
      {"measurement": "Approximate Solubility", "setting": "[1]; Tetrahydrofuran", "value": 4710, "unit": "µg/mL"},
      {"measurement": "Approximate Solubility", "setting": "[1]; Toluene", "value": 200, "unit": "µg/mL"},
      {"measurement": "Approximate Solubility", "setting": "[1]; Water", "value": 100, "unit": "µg/mL"},
      {"measurement": "Approximate Solubility", "setting": "[1]; n-Butanol", "value": 340, "unit": "µg/mL"},
      {"measurement": "Mass change relative to the dry mass", "setting": "[2]", "value": 2.9, "unit": "%"},
      {"measurement": "Weight at the end of the desorption cycle", "setting": "[2]", "value": "lost all of the weight it had gained; also recorded: loses approximately all of the adsorbed moisture"},
      {"measurement": "XRPD diffractogram after completion of the adsorption/desorption cycle", "setting": "[2]", "value": "substantially unchanged"},
      {"measurement": "Hygroscopicity", "setting": "[2]", "value": "substantially non-hygroscopic"},
      {"measurement": "Physical stability upon compression by X-ray powder diffraction", "setting": "[3]", "value": "substantially unchanged; also recorded: physically stable"},
      {"measurement": "Stability when slurried", "setting": "[4]; 25° C., methylene chloride, water, ethanol/water (1/1)", "value": "stable"},
      {"measurement": "Physical stability of the solid form by X-ray powder diffraction", "setting": "[5]", "value": "substantially unchanged; also recorded: physically stable"},
      {"measurement": "Stability of slurry", "setting": "[6]; 2-propanol", "value": "converted to a mixture of Forms A and B"},
      {"measurement": "Stability of slurry", "setting": "[6]; acetone, acetonitrile, ethanol and methanol", "value": "converted into the Form A crystal form"},
      {"measurement": "Stability of slurry", "setting": "[6]; heptane, methyl t-butyl ether, water, ethanol/water (1/1)", "value": "stable"},
      {"measurement": "Mass increase in moisture sorption test", "setting": "[7]", "value": "approximately 1.5%"},
      {"measurement": "Total mass increase in moisture sorption test", "setting": "[7]", "value": "approximately 3%"}
    ]}
  ]
}
